Test results as given in patent US20220204493A1, “CRYSTALLINE FORM OF A BET-INHIBITOR AND MANUFACTURE THEREOF” (ORION CORPORATION, priority 2019, published 2022).

Columns and labels:
[1] = Hygroscopicity of crystalline form 1; format: physicochemical
[2] = Long-term stability of crystalline form 1 at different storage conditions (XRPD); format: physicochemical
Method: (§1) Four samples of compound (I) in crystalline form 2 (with traces of form 1) prepared according to Example 10 were stored at stressed conditions. XRPD of each sample was recorded at initial time point and at further time points. Moreover, long term stability of crystalline form 1 of compound (I) at different storage conditions was studied.

[3] = Relative stability study between crystalline form 1 and 2 (storage at stressed conditions, XRPD at time points); format: physicochemical
Method: The XRPD pattern of the crystalline form 1 of compound (I) was measured using a PANalytical X'Celerator θ-θ diffractometer with CuKα radiation (40 kV, 30 mA). The diffractometer was operated in reflection mode. The measurements were performed in the range of 3°-40° 2θ. 100-300 mg of the sample powder was placed in the sample holder and the surface was pressed. For comparison purposes, the XRPD pattern of an unmilled sample of crystalline form 1 and the XRPD pattern of a milled sample of crystalline form 1 are shown together in FIG. 3.
The XRPD pattern of the amorphic form and the crystalline form 2 of compound (I) were measured as above except that a small sample amounts (approximately 5-10 mg) were first placed in the centre of a zero-background sample holder and then gently spread to a thin layer.
as §1

## COc1cc2c(cc1-c1c(C)noc1C)cc(C)c(=O)n2Cc1ccccn1 [Crystalline form 1, 6-(3,5-dimethylisoxazol-4-yl)-7-methoxy-3-methyl-1-(pyridin-2-ylmethyl)quinolin-2(1H)-one]
[1]
  Hygroscopicity: low hygroscopicity
[2]
  Physical stability: physically stable
[2]; 25° C./RH 60 % and 40° C./RH 75 %
  Long-term stability, changes by XRPD: no changes were observed
[2]; storage 25° C./RH 60 %
  Long-term stability (stable up to; no changes by XRPD): Stable up to 24 months
[2]; storage 40° C./RH 75 %
  Long-term stability (stable up to; no changes by XRPD): Stable up to 6 months
[3]; all studied conditions
  Relative stability of the crystalline forms: more stable than form 2

## COc1cc2c(cc1-c1c(C)noc1C)cc(C)c(=O)n2Cc1ccccn1 [amorphous compound (I), 6-(3,5-Dimethylisoxazol-4-yl)-7-methoxy-3-methyl-1-(pyridin-2-ylmethyl)quinolin-2(1H)-one]
other
  melting point: 180 °C

## COc1cc2c(cc1-c1c(C)noc1C)cc(C)c(=O)n2Cc1ccccn1 [crystalline form 2, 6-(3,5-dimethylisoxazol-4-yl)-7-methoxy-3-methyl-1-(pyridin-2-ylmethyl)quinolin-2(1H)-one]
[3]; 25 °C/RH 60 %, 2 weeks
  Crystalline form found by XRPD: II +
[3]; 25 °C/RH 60 %, 4 weeks
  Crystalline form found by XRPD: II +
[3]; 25 °C/RH 60 %, 12 weeks
  Crystalline form found by XRPD: II +
[3]; 25 °C/RH 60 %, 24 weeks
  Crystalline form found by XRPD: I +
[3]; 25 °C/RH 60 %, initial
  Crystalline form found by XRPD: II +
[3]; 30 °C/RH 65 %, 2 weeks
  Crystalline form found by XRPD: II +
[3]; 30 °C/RH 65 %, 4 weeks
  Crystalline form found by XRPD: II +
[3]; 30 °C/RH 65 %, 12 weeks
  Crystalline form found by XRPD: II +
[3]; 30 °C/RH 65 %, 24 weeks
  Crystalline form found by XRPD: I +
[3]; 30 °C/RH 65 %, initial
  Crystalline form found by XRPD: II +
[3]; 40 °C/RH 75 %, 2 weeks
  Crystalline form found by XRPD: II +
[3]; 40 °C/RH 75 %, 4 weeks
  Crystalline form found by XRPD: II +
[3]; 40 °C/RH 75 %, initial
  Crystalline form found by XRPD: II +
[3]; RT/RH 5 %, initial
  Crystalline form found by XRPD: II +
[3]; all studied conditions
  Time for transformation of form 2 to form 1: ≤ 36 weeks
